Columns and labels:
Japanese bulrush = test: Test Example 1: herbicidal activity, application before weed generation under submerged conditions (Table 16, symbol B); format: in vivo, Japanese bulrush (Schoenoplectus juncoides); settings: 320 g/ha applied herbicide
Procedure, shortened: (§1)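 Submerged Wagner pots (alluvial soil, 4 cm water) sown with weed seeds and planted with 2.5-leaf rice seedlings; emulsifiable concentrate diluted in water applied to water surface on sowing day. Held in greenhouse at 25-30 °C; injury scored 0-5 by herbicidal rate after three weeks.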

southern crabgrass [1] = test: Test Example 4: herbicidal effect by soil treatment (Table 19, symbol F); format: in vivo, southern crabgrass (Digitaria ciliaris); settings: 320 g/ha
Procedure, shortened: (§2)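 Applied as a water-diluted emulsion, the compound was sprayed onto soil covering newly sown seeds. Evaluation came three weeks after application, in a greenhouse held at 25° C. to 30° C.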

windgrass [2] = test: Test Example 5: herbicidal effect by foliage application, plastic box (Table 20, symbol L); format: in vivo, windgrass (Apera spica-venti); settings: foliage application, 320 g/ha, 3 weeks after application
Procedure, shortened: (§3)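 Sow seeds spot-wise in sterilized diluvial soil; cover with ~1.5 cm soil. Grow 14 days in greenhouse, 25° C. to 30° C. Spray foliage with emulsion diluted to predetermined amount. Rate effect after 3 weeks.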

barnyard grass [3] = test: Test Example 5: herbicidal effect by foliage application, plastic box (Table 20, symbol H); format: in vivo, barnyard grass (Echinochloa crus-galli); settings: foliage application, 320 g/ha, 3 weeks after application
Procedure, shortened: as §3

southern crabgrass [4] = test: Test Example 5: herbicidal effect by foliage application, plastic box (Table 20, symbol F); format: in vivo, southern crabgrass (Digitaria ciliaris); settings: foliage application, 320 g/ha, 3 weeks after application
Procedure, shortened: as §3

green foxtail [5] = test: Test Example 4: herbicidal effect by soil treatment (Table 19, symbol G); format: in vivo, green foxtail (Setaria viridis); settings: 320 g/ha
Procedure, shortened: as §2

rice flat sedge = test: Test Example 3: herbicidal effect by foliage application, Wagner pot (Table 18, symbol E); format: in vivo, rice flat sedge (Cyperus iria); settings: 320 g/ha
Procedure, shortened: (§4)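 Plants were sown in alluvial soil held under 0.1–0.5 cm standing water and grown 14 days in a greenhouse at 25–30 °C. An emulsifiable formulation, water-diluted to the set dose, was then sprayed onto the foliage, and effects were scored three weeks later using previously defined criteria.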

Italian ryegrass [6] = test: Test Example 4: herbicidal effect by soil treatment (Table 19, symbol K); format: in vivo, Italian ryegrass (Lolium multiflorum); settings: 320 g/ha
Procedure, shortened: as §2

oval-leafed pondweed = test: Test Example 1: herbicidal activity, application before weed generation under submerged conditions (Table 16, symbol C); format: in vivo, oval-leafed pondweed (Monochoria vaginalis); settings: 320 g/ha applied herbicide
Procedure, shortened: as §1

Italian ryegrass [7] = test: Test Example 5: herbicidal effect by foliage application, plastic box (Table 20, symbol K); format: in vivo, Italian ryegrass (Lolium multiflorum); settings: foliage application, 320 g/ha, 3 weeks after application
Procedure, shortened: as §3

redroot pigweed = test: Test Example 4: herbicidal effect by soil treatment (Table 19, symbol N); format: in vivo, redroot pigweed (Amaranthus retroflexus); settings: 320 g/ha
Procedure, shortened: as §2

barnyard grass [8] = test: Test Example 4: herbicidal effect by soil treatment (Table 19, symbol H); format: in vivo, barnyard grass (Echinochloa crus-galli); settings: 320 g/ha
Procedure, shortened: as §2

velvetleaf [9] = test: Test Example 5: herbicidal effect by foliage application, plastic box (Table 20, symbol M); format: in vivo, velvetleaf (Abutilon theophrasti); settings: foliage application, 320 g/ha, 3 weeks after application
Procedure, shortened: as §3

windgrass [10] = test: Test Example 4: herbicidal effect by soil treatment (Table 19, symbol L); format: in vivo, windgrass (Apera spica-venti); settings: 320 g/ha
Procedure, shortened: as §2

chickweed = test: Test Example 4: herbicidal effect by soil treatment (Table 19, symbol P); format: in vivo, common chickweed (Stellaria media); settings: 320 g/ha
Procedure, shortened: as §2

persian speedwell [11] = test: Test Example 4: herbicidal effect by soil treatment (Table 19, symbol R); format: in vivo, Persian speedwell (Veronica persica); settings: 320 g/ha
Procedure, shortened: as §2

wild oat [12] = test: Test Example 4: herbicidal effect by soil treatment (Table 19, symbol I); format: in vivo, wild oat (Avena fatua); settings: 320 g/ha
Procedure, shortened: as §2

late watergrass = test: Test Example 1: herbicidal activity, application before weed generation under submerged conditions (Table 16, symbol A); format: in vivo, late watergrass (Echinochloa oryzicola); settings: 320 g/ha applied herbicide
Procedure, shortened: as §1

blackgrass [13] = test: Test Example 5: herbicidal effect by foliage application, plastic box (Table 20, symbol J); format: in vivo, blackgrass (Alopecurus myosuroides); settings: foliage application, 320 g/ha, 3 weeks after application
Procedure, shortened: as §3

velvetleaf [14] = test: Test Example 4: herbicidal effect by soil treatment (Table 19, symbol M); format: in vivo, velvetleaf (Abutilon theophrasti); settings: 320 g/ha
Procedure, shortened: as §2

persian speedwell [15] = test: Test Example 5: herbicidal effect by foliage application, plastic box (Table 20, symbol R); format: in vivo, Persian speedwell (Veronica persica); settings: foliage application, 320 g/ha, 3 weeks after application
Procedure, shortened: as §3

barnyard grass [16] = test: Test Example 3: herbicidal effect by foliage application, Wagner pot (Table 18, symbol H); format: in vivo, barnyard grass (Echinochloa crus-galli); settings: 320 g/ha
Procedure, shortened: as §4

lambsquarters [17] = test: Test Example 4: herbicidal effect by soil treatment (Table 19, symbol O); format: in vivo, lambsquarters (Chenopodium album); settings: 320 g/ha
Procedure, shortened: as §2

blackgrass [18] = test: Test Example 4: herbicidal effect by soil treatment (Table 19, symbol J); format: in vivo, blackgrass (Alopecurus myosuroides); settings: 320 g/ha
Procedure, shortened: as §2

wild oat [19] = test: Test Example 5: herbicidal effect by foliage application, plastic box (Table 20, symbol I); format: in vivo, wild oat (Avena fatua); settings: foliage application, 320 g/ha, 3 weeks after application
Procedure, shortened: as §3

green foxtail [20] = test: Test Example 5: herbicidal effect by foliage application, plastic box (Table 20, symbol G); format: in vivo, green foxtail (Setaria viridis); settings: foliage application, 320 g/ha, 3 weeks after application
Procedure, shortened: as §3

Chinese sprangletop = test: Test Example 3: herbicidal effect by foliage application, Wagner pot (Table 18, symbol D); format: in vivo, chinese sprangletop (Leptochloa chinensis); settings: 320 g/ha
Procedure, shortened: as §4

lambsquarters [21] = test: Test Example 5: herbicidal effect by foliage application, plastic box (Table 20, symbol O); format: in vivo, lambsquarters (Chenopodium album); settings: foliage application, 320 g/ha, 3 weeks after application
Procedure, shortened: as §3

Compound | Herbicidal effect on B: Japanese bulrush (grade 0-5) (Japanese bulrush) | herbicidal effect rating, F: southern crabgrass (southern crabgrass [1]) | effect on windgrass (L) (windgrass [2]) | effect on barnyard grass (H) (barnyard grass [3]) | effect on southern crabgrass (F) (southern crabgrass [4]) | herbicidal effect rating, G: green foxtail (green foxtail [5]) | herbicidal effect on E (rice flat sedge), rating 0-5 (rice flat sedge) | herbicidal effect rating, K: Italian ryegrass (Italian ryegrass [6]) | Herbicidal effect on C: oval-leafed pondweed (grade 0-5) (oval-leafed pondweed) | effect on Italian ryegrass (K) (Italian ryegrass [7]) | herbicidal effect rating, N: redroot pigweed (redroot pigweed) | herbicidal effect rating, H: barnyard grass (barnyard grass [8]) | effect on velvetleaf (M) (velvetleaf [9]) | herbicidal effect rating, L: windgrass (windgrass [10]) | herbicidal effect rating, P: chickweed (chickweed) | herbicidal effect rating, R: persian speedwell (persian speedwell [11]) | herbicidal effect rating, I: wild oat (wild oat [12]) | Herbicidal effect on A: late watergrass (grade 0-5) (late watergrass) | effect on blackgrass (J) (blackgrass [13]) | herbicidal effect rating, M: velvetleaf (velvetleaf [14]) | further results
Cc1nn(C)c(=O)c(-c2c(-c3ccc(F)cc3)sc3ccc(F)cc23)c1OC(=O)c1ccccc1Cl [2-005] | 2 (Herbicidal rate of 20% or more and less than 40%) | 5 (Herbicidal rate of 90% or more (almost completely withered)) | 0 (Herbicidal rate of 5% or less (almost no effect)) | 4 (Herbicidal rate of 70% or more and less than 90%) | 5 (Herbicidal rate of 90% or more (almost completely withered)) | 5 (Herbicidal rate of 90% or more (almost completely withered)) | 5 (Herbicidal rate of 90% or more (almost completely withered)) | 4 (Herbicidal rate of 70% or more and less than 90%) | 2 (Herbicidal rate of 20% or more and less than 40%) | 4 (Herbicidal rate of 70% or more and less than 90%) | 4 (Herbicidal rate of 70% or more and less than 90%) | 4 (Herbicidal rate of 70% or more and less than 90%) | 4 (Herbicidal rate of 70% or more and less than 90%) | 0 (Herbicidal rate of 5% or less (almost no effect)) | 4 (Herbicidal rate of 70% or more and less than 90%) | 3 (Herbicidal rate of 40% or more and less than 70%) | 0 (Herbicidal rate of 5% or less (almost no effect)) | 0 (Herbicidal rate of 5% or less (almost no effect)) | 3 (Herbicidal rate of 40% or more and less than 70%) | 4 (Herbicidal rate of 70% or more and less than 90%) | effect on persian speedwell (R) (persian speedwell [15]): 4 (Herbicidal rate of 70% or more and less than 90%); herbicidal effect on H (barnyard grass), rating 0-5 (barnyard grass [16]): 5 (Herbicidal rate of 90% or more (almost completely withered)); herbicidal effect rating, O: lambsquarters (lambsquarters [17]): 4 (Herbicidal rate of 70% or more and less than 90%); herbicidal effect rating, J: blackgrass (blackgrass [18]): 0 (Herbicidal rate of 5% or less (almost no effect)); effect on wild oat (I) (wild oat [19]): 0 (Herbicidal rate of 5% or less (almost no effect)); effect on green foxtail (G) (green foxtail [20]): 5 (Herbicidal rate of 90% or more (almost completely withered)); herbicidal effect on D (Chinese sprangletop), rating 0-5 (Chinese sprangletop): 3 (Herbicidal rate of 40% or more and less than 70%); effect on lambsquarters (O) (lambsquarters [21]): 3 (Herbicidal rate of 40% or more and less than 70%)
CCCC(=O)Oc1c(C)nn(C)c(=O)c1-c1c(-c2ccc(C(C)(C)C)cc2)sc2ccc(F)cc12 [2-017] | 0 (Herbicidal rate of 5% or less (almost no effect)) | 0 (Herbicidal rate of 5% or less (almost no effect)) | 0 (Herbicidal rate of 5% or less (almost no effect)) | 3 (Herbicidal rate of 40% or more and less than 70%) | 0 (Herbicidal rate of 5% or less (almost no effect)) | 1 (Herbicidal rate of 5% or more and less than 20%) | 2 (Herbicidal rate of 20% or more and less than 40%) | 0 (Herbicidal rate of 5% or less (almost no effect)) | 0 (Herbicidal rate of 5% or less (almost no effect)) | 0 (Herbicidal rate of 5% or less (almost no effect)) | 4 (Herbicidal rate of 70% or more and less than 90%) | 2 (Herbicidal rate of 20% or more and less than 40%) | 1 (Herbicidal rate of 5% or more and less than 20%) | 0 (Herbicidal rate of 5% or less (almost no effect)) | 0 (Herbicidal rate of 5% or less (almost no effect)) | 0 (Herbicidal rate of 5% or less (almost no effect)) | 0 (Herbicidal rate of 5% or less (almost no effect)) | 2 (Herbicidal rate of 20% or more and less than 40%) | 0 (Herbicidal rate of 5% or less (almost no effect)) | 0 (Herbicidal rate of 5% or less (almost no effect)) | effect on persian speedwell (R) (persian speedwell [15]): 3 (Herbicidal rate of 40% or more and less than 70%); herbicidal effect on H (barnyard grass), rating 0-5 (barnyard grass [16]): 5 (Herbicidal rate of 90% or more (almost completely withered)); herbicidal effect rating, O: lambsquarters (lambsquarters [17]): 2 (Herbicidal rate of 20% or more and less than 40%); herbicidal effect rating, J: blackgrass (blackgrass [18]): 0 (Herbicidal rate of 5% or less (almost no effect)); effect on wild oat (I) (wild oat [19]): 0 (Herbicidal rate of 5% or less (almost no effect)); effect on green foxtail (G) (green foxtail [20]): 1 (Herbicidal rate of 5% or more and less than 20%); herbicidal effect on D (Chinese sprangletop), rating 0-5 (Chinese sprangletop): 3 (Herbicidal rate of 40% or more and less than 70%); effect on lambsquarters (O) (lambsquarters [21]): 1 (Herbicidal rate of 5% or more and less than 20%)
